Test results from ChEMBL document CHEMBL3217580, “Structureactivity relationships of benzimidazole derivatives as antiparasitic agents: Dual activity-difference (DAD) maps” (Medchemcomm, 2011).

What was measured:
Trichomonas vaginalis = assay: Antimicrobial activity against Trichomonas vaginalis; type: functional, organism-based
Giardia intestinalis = assay: Antimicrobial activity against Giardia intestinalis; type: functional, organism-based, Giardia duodenalis; settings: for IC50: Giardia duodenalis
[1] = Trichomonas vaginalis, read-out: pIC50 (converted)
[2] = Trichomonas vaginalis, read-out: IC50

SMILES	pIC50 (Trichomonas vaginalis)	IC50 (Trichomonas vaginalis; [1])	pIC50 (Giardia intestinalis)	IC50 (Giardia intestinalis; read-out: pIC50 (converted))	IC50 (Trichomonas vaginalis; [2])	IC50 (Giardia intestinalis; read-out: IC50)	IC50 (Trichomonas vaginalis; read-out: IC50)
CN(C)CCSc1nc2c(Br)cc(Br)cc2[nH]1	6.51	309 nM	7.54	28.8 nM			
CN(C)CCSc1nc2c(Cl)cc(Cl)cc2[nH]1			7.68	20.9 nM			
FC(F)(F)c1nc2cc(Br)ccc2[nH]1	5.8	1580 nM	6.19	646 nM			
Clc1cc(Cl)c2nc(SCCN3CCCCC3)[nH]c2c1	7.14	72.4 nM	7.26	55 nM			
CCN(CC)CCSc1nc2c(Br)cc(Br)cc2[nH]1	7.53	29.5 nM	7.46	34.7 nM	29 nM		
Clc1cc(Cl)c2nc(SCCN3CCOCC3)[nH]c2c1	7.29	51.3 nM	7.41	38.9 nM			
OCCSc1nc2c(Br)cc(Br)cc2[nH]1	6.83	148 nM	6.98	105 nM			
O=[N+]([O-])c1ccc(CCSc2nc3c(Br)cc(Br)cc3[nH]2)cc1	8.48	3.31 nM	7.43	37.2 nM	3 nM		
CCCSc1ccc2[nH]c(C(F)(F)F)nc2c1	6.46	347 nM	5.82	1510 nM			
Brc1cc(Br)c2nc(SCCN3CCCCC3)[nH]c2c1	7.69	20.4 nM	6.9	126 nM			
O=[N+]([O-])c1ccc(CCSc2nc3c(Cl)cc(Cl)cc3[nH]2)cc1	7.96	11 nM	7.09	81.3 nM	10 nM		
FC(F)(F)c1nc2c(Br)cc(Br)cc2[nH]1	6.72	191 nM	6.6	251 nM			
CCN(CC)CCSc1nc2c(Cl)cc(Cl)cc2[nH]1	7.39	40.7 nM	7.72	19.1 nM			
CN(C)CCCSc1nc2c(Br)cc(Br)cc2[nH]1	7.99	10.2 nM	7.69	20.4 nM	11 nM	20 nM	
CN(C)CCCSc1nc2c(Cl)cc(Cl)cc2[nH]1	7.07	85.1 nM	7.14	72.4 nM	85 nM	72 nM	
FC(F)(F)c1nc2c(Br)c(Br)c(Br)cc2[nH]1	6.57	269 nM	6.85	141 nM	270 nM		270 nM
OCCSc1nc2c(Cl)cc(Cl)cc2[nH]1	6.16	692 nM	7.42	38 nM			
Brc1cc(Br)c2nc(SCCN3CCOCC3)[nH]c2c1	7.23	58.9 nM	7.23	58.9 nM			
O=C(c1ccccc1)c1ccc2[nH]c(C(F)(F)F)nc2c1	4.55	28200 nM	5.64	2290 nM	28400 nM	2310 nM	
